Assay [1] concerns Burkholderia cepacia. The experiment in a line: Survival of flies after Burkholderia cepacia infection. It counts as in vivo, Drosophila. The following applies: relative to vehicle-fed controls, p<0.0001. On the procedure: Infections were performed as previously described (Schneider et al. 2007) with Burkholderia cepacia (ATCC strain #25416). Death was assayed visually the next day every hour or more frequently as needed. Survival curves are plotted as Kaplan-Meier graphs and log-rank analysis performed using GraphPad Prism. All infection experiments were performed with a minimum of 3 independent trials and yielded statistically similar results, except where noted. Graphs and p-values in figures are representative trials.
To directly test the role of TORC1 in survival of infection, TORC1 activity was inhibited in two ways. First, flies were injected with rapamycin, a TORC1-specific inhibitor (9.6 ng per fly, equivalent to the mammalian dose of 16 mg/kg (Lee et al. 2009; Loeweth et al. 2002)).
Wild type flies, 5-7 day old males, were fed two different concentrations (250 μM and 500 μM) of Torin (MedChem Express), a TORC1 and TORC2 inhibitor, for two days prior to infection with Burkholderia cepacia as described in Example 1. Controls were fed a vehicle.

Assay [2] relates to Burkholderia cepacia. As to the kind of experiment: Bacterial load quantitation after Burkholderia cepacia infection. It counts as in vivo, Drosophila. The settings on record: wild type flies fed Torin vs vehicle-fed flies. From the text: Data are plotted with SEM.

For Torin, the survival of infection result in the assay with Burkholderia cepacia [1] (wild type male flies fed 250 μM for two days prior to infection) and in the assay with Burkholderia cepacia [1] (wild type male flies fed 500 μM for two days prior to infection) was “significantly increased” throughout. Moreover, the bacterial load result with Burkholderia cepacia [2] was “not significant change”.

Source of the values: patent publication US11116754B2, “Inhibition of TOR complex 2 increases immunity against bacterial infection” (THE TRUSTEES OF COLUMBIA UNIVERSITY IN THE CITY OF NEW YORK, priority 2015, dated 2021).
